Consider one compound from patent US4918079A, “Imidazole derivatives as 5-HT3 receptor antagonists” (Beecham Group p.l.c., priority 1987, dated 1990).

The assay concerns von Bezold-Jarisch reflex evoked by 5-HT. In words: Antagonism of the von Bezold-Jarisch reflex evoked by 5-HT in the anaesthetised rat. In kind it is in vivo. The settings on record: iv, male rats, urethane anaesthesia, 5-HT usually 6 μg/kg i.v., heart rate, read-out: ED50 (concentration required to reduce the 5-HT-evoked response to 50% of the control response). Here is the method: Antagonism of the von Bezold-Jarisch reflex
The compounds were evaluated for antagonism of the von Bezold-Jarisch reflex evoked by 5-HT in the anaesthetised rat according to the following method:
Male rats 250≥350 g, were anaesthetised with urethane (1.25 g/kg intraperitoneally) and blood pressure and heart rate recorded as described by Fozard J. R. et al., J. Cardiovasc. Pharmacol. 2, 229-245 (1980). A submaximal dose of 5-HT (usually 6 μg/kg) was given repeatedly by the intravenous route and changes in heart rate quantified. Compounds were given intravenously and the concentration required to reduce the 5-HT-evoked response to 50% of the control response (ED50) was then determined.

Where a name gives a salt, the structure may show the parent alone.

Turning to `CC1(C)CN(C(=O)CCc2c[nH]cn2)c2ccccc21` [Example E1, monohydrochloride], the ED50 is 4.2 µg/kg.
